These are literature values, as cited in the CATMoS acute toxicity set (Mansouri et al. 2021).

SMILES strings stand for the structures. Where “and” joins values, the source holds several entries; their conditions need not be identical. Equal values may be shown once.

The nature of this data set: rat acute oral toxicity. The settings on record: in vivo.
As to `CCCCCCCCCCCCOS(=O)(=O)O`, the median lethal dose (LD50) was 1300 mg/kg.
With `CCCOP(=S)(OCCC)SCC(=O)N1CCCCC1C` (centres undefined), the median lethal dose (LD50) is 324 mg/kg.
For the molecule `COc1ccc(-c2cc(N)c3c(c2O)C(=O)c2c(N)ccc(O)c2C3=O)cc1`, the median lethal dose (LD50) was 6380 mg/kg.
As to `CNC(=O)Oc1cc(C(C)C)ccc1C`, the median lethal dose (LD50) is 250 mg/kg.
As for `CC(NNC(=O)c1ccccc1)c1ccccc1` (centres undefined), the LD50 is 675 mg/kg.
Turning to `CCCC(C)(Oc1ccc(Cc2ccc(Cl)cc2)cc1)C(=O)OCc1cccnc1` (centres undefined), the 50% lethal dose (LD50) is 10000 mg/kg.
On to `C1=CCC(C2OCC3(CC=CCC3)CO2)CC1` (centres undefined), for which the median lethal dose (LD50) is 5190 mg/kg.
For the molecule `COc1cc2c3c(c4ccc(OC)c(OC)c4c2cc1OC)CN1CCCC1C3` (centres undefined), the 50% lethal dose (LD50) was 65 mg/kg.
Consider `COCCN(C(=O)CCl)c1c(C)cccc1C`, for which the median lethal dose (LD50) was 1600 mg/kg.
For `CC1(C)NC(=O)N(c2ccc([N+](=O)[O-])c(C(F)(F)F)c2)C1=O`, the LD50 is 195 mg/kg.
For the molecule `C[N+]1(CC[N+]2(C)CC3C4C=CC(CC4)C3C2)CCCC1` (centres undefined), the LD50 was 1810 mg/kg.
In the case of `Clc1ccc(OCOc2ccc(Cl)cc2)cc1`, the LD50 is 5800 mg/kg.
For `CC(=O)O[C@]1(C(C)=O)CC[C@H]2[C@@H]3C=C(Cl)C4=CC(=O)CC[C@]4(C)[C@H]3CC[C@@]21C`, the LD50 was 6400 mg/kg.
Regarding `CC=Cc1cc(OC)c(OC)cc1OC`, the 50% lethal dose (LD50) is 1010 mg/kg.
Consider `CCCCCCCCCCCCOCCO`, for which the median lethal dose (LD50) was 6550 mg/kg.
In the case of `ClCc1c(Cl)cc(Cl)cc1Cl`, the LD50 is 3080 mg/kg.
For `CN(C)CCN(Cc1ccsc1)c1ccccn1`, the LD50 is 525 mg/kg.
Turning to `Nn1cnnc1`, the 50% lethal dose (LD50) was 4800 mg/kg and 13600 mg/kg.
Consider `Cc1cc(C)c(S(=O)(=O)O)c(C)c1Nc1ccc(Nc2c(C)cc(C)c(S(=O)(=O)O)c2C)c2c1C(=O)c1ccccc1C2=O`, for which the median lethal dose (LD50) is 3350 mg/kg.
As for `N#Cc1cc2[nH]c(C(F)(F)F)nc2c(Cl)c1Cl`, the LD50 was 3960 mg/kg.
For `CCNC1=Nc2ccc(Cl)cc2C(C)(c2ccccc2)O1` (centres undefined), the 50% lethal dose (LD50) was 1500 mg/kg.
Regarding `COc1ccc(CNCC(O)COc2ccc3[nH]c(=O)ccc3c2)cc1OC` (centres undefined), the LD50 is 1500 mg/kg.
Regarding `CCC(C)(C)N/C(N)=N/C#N`, the LD50 was 300 mg/kg.
As for `COc1cccc2c1C(=O)c1c(O)c3c(c(O)c1C2=O)C[C@@](O)(C(C)=O)C[C@@H]3O[C@H]1C[C@H](N)[C@H](O)[C@H](C)O1`, the 50% lethal dose (LD50) was 336 mg/kg and 290 mg/kg.
Turning to `Cc1c(Cl)c(Br)cc2[nH]c(C(F)(F)F)nc12`, the 50% lethal dose (LD50) is 30 mg/kg.
For `COC(=O)CCC(Br)C(C)=O` (centres undefined), the LD50 was 600 mg/kg.
Take `O=C1NCCN1c1ncc([N+](=O)[O-])s1`: the LD50 was 900 mg/kg.
Take `CCOC(=O)c1c[n+](CC)c2n(c1=O)C(C)CCC2` (centres undefined): the 50% lethal dose (LD50) is 1350 mg/kg.
For the molecule `Cc1cc[nH]n1`, the median lethal dose (LD50) is 710 mg/kg.
On to `O=C(O)C1CCc2cc(C3CCCCC3)c(O)cc21` (centres undefined), for which the LD50 was 450 mg/kg.
For `CC(C)(C)c1ccc(OP2OCC3(CO2)COP(Oc2ccc(C(C)(C)C)cc2C(C)(C)C)OC3)c(C(C)(C)C)c1` (centres undefined), the median lethal dose (LD50) was 5580 mg/kg.
With `COC(=O)C1=C(C)NC(C)=C(C(=O)OCCN(C)Cc2ccccc2)C1c1cccc([N+](=O)[O-])c1` (centres undefined), the LD50 was 184 mg/kg and 320 mg/kg.
For the molecule `COc1ccc(-c2noc(CC(=O)O)c2-c2ccc(OC)cc2)cc1`, the LD50 was 887 mg/kg.
On to `O=[N+]([O-])c1c(Cl)cc(Cl)c([N+](=O)[O-])c1Cl`, for which the LD50 is 500 mg/kg.
Take `COC(=O)c1ccccc1O`: the median lethal dose (LD50) was 1700 mg/kg.
In the case of `O=C(O)c1c(Cl)ccc(Cl)c1Cl`, the LD50 is 1640 mg/kg.
For the molecule `CCNc1nc(NC(C)CC)nc(OC)n1` (centres undefined), the median lethal dose (LD50) was 1000 mg/kg.
Turning to `CC(C)CC(C)Nc1ccc(Nc2ccccc2)cc1` (centres undefined), the LD50 is 3580 mg/kg.
For `CN(C)c1ccc(C(=C2C=CC(=[N+](C)C)C=C2)c2ccc(N(C)C)cc2)cc1`, the LD50 was 420 mg/kg.
With `NCCNCCNCCN`, the median lethal dose (LD50) is 2500 mg/kg and 2280 mg/kg.
For the molecule `CCCCC(CC)CNC1CCCCC1` (centres undefined), the median lethal dose (LD50) was 710 mg/kg.
Turning to `S=C1N=CC=NC(=S)SSSS1`, the LD50 was 8530 mg/kg.
On to `C=CC(C)(CCC=C(C)C)OC(=O)C=Cc1ccccc1` (centres undefined), for which the LD50 was 9960 mg/kg.
Consider `CCCCC(CC)CNCC(C)(N)CNCC(CC)CCCC` (centres undefined), for which the median lethal dose (LD50) was 800 mg/kg.
As for `CCOP(=S)(OCC)SC1CCSc2ccc(Cl)cc21` (centres undefined), the LD50 was 63 mg/kg.
Take `O=C(c1cccnc1)N1CCN=C1Nc1c(Cl)cccc1Cl`: the LD50 was 80 mg/kg.
In the case of `O=C(CCl)c1ccc(Cl)cc1Cl`, the LD50 is 300 mg/kg.
As to `CCCCOC(=O)CC(SP(=O)(OC)OC)C(=O)OCCCC` (centres undefined), the LD50 was 515 mg/kg.
For the molecule `N#Cc1ccc([N+](=O)[O-])cc1C#N`, the LD50 was 850 mg/kg.
Consider `O=Cc1cccc2ccccc12`, for which the LD50 is 667 mg/kg.
On to `CSc1ccc(OP(C)(C)=S)cc1C`, for which the LD50 was 175 mg/kg.
With `COC(C)CC(CC(OC)OC)OC` (centres undefined), the LD50 is 4090 mg/kg.
Take `C=C(CO)C(=O)OCC`: the LD50 is 620 mg/kg.
As for `Cc1nc(Cn2cnc3c2c(=O)n(C)c(=O)n3C)no1`, the 50% lethal dose (LD50) is 1550 mg/kg.
With `CCOC(=O)C1(c2ccccc2)CCN(CCOCc2ccccc2)CC1`, the LD50 was 284 mg/kg.
`CCOC(=O)[N-]c1c[n+](N2CCOCC2)no1`: the median lethal dose (LD50) is 1050 mg/kg.
For the molecule `CC1(C)[C@H](C(=O)O[C@H](C#N)c2cccc(Oc3ccccc3)c2)[C@@H]1/C=C(\Cl)C(F)(F)F` (single isomer, unassigned), the LD50 is 56 mg/kg.
As for `CCN[C@H]1C[C@H](C)S(=O)(=O)c2sc(S(N)(=O)=O)cc21`, the median lethal dose (LD50) was 1930 mg/kg.
For `NS(=O)(=O)c1cc(Cl)c(Cl)c(S(N)(=O)=O)c1`, the median lethal dose (LD50) is 10100 mg/kg.
Take `CN(Sc1ccc(Cl)c(Cl)c1)C(=O)Oc1cccc2c1OC(C)(C)C2`: the LD50 was 25 mg/kg.
Turning to `CN(C)C(=S)N(C)C`, the LD50 is 920 mg/kg.
As to `CCOC(C1=NCC(C)(C)CN1)c1ccc(Cl)cc1` (centres undefined), the 50% lethal dose (LD50) is 190 mg/kg.
Regarding `Cc1cccc(C)n1`, the LD50 is 400 mg/kg.
With `CC[n+]1c(C=C2Sc3ccccc3N2C)ccc2ccccc21`, the LD50 is 2240 mg/kg.
Consider `CC1CSC(c2ccccc2OC(=O)N(C)C)S1` (centres undefined), for which the median lethal dose (LD50) is 140 mg/kg.
For the molecule `CCOC(C1=NCC(C)(CC)CN1)c1ccc(Cl)cc1` (centres undefined), the median lethal dose (LD50) is 110 mg/kg.
In the case of `CCOP(=S)(OCC)N(SN(C)C(=O)ON=C(C)SC)C(C)C`, the 50% lethal dose (LD50) was 325 mg/kg.
Consider `CC(C)(c1ccc(O)cc1)c1ccc(O)cc1`, for which the LD50 is 1000 mg/kg.
`NCC(O)c1ccc(O)c(O)c1` (centres undefined): the LD50 was 132 mg/kg.
Regarding `CCN=c1nc(Cl)[nH]c(=NC(C)CC)[nH]1` (centres undefined), the LD50 was 3000 mg/kg.
Regarding `NCCCN1CCOCC1`, the LD50 was 3560 mg/kg.
With `Brc1cc2c(cc1Br)Oc1cc(Br)c(Br)cc1O2`, the LD50 is 0.1 mg/kg.
On to `CC(=O)CC(=O)Nc1ccccc1`, for which the median lethal dose (LD50) was 2450 mg/kg.
As for `CCCCC(CC)CNCC(CC)CCCC` (centres undefined), the median lethal dose (LD50) is 1640 mg/kg.
As to `FC1(F)CC(C2CC3(Cl)C(Cl)=C(Cl)C2(Cl)C3(Cl)Cl)C1(F)F` (centres undefined), the 50% lethal dose (LD50) was 550 mg/kg.
As to `C/C=N/O`, the median lethal dose (LD50) is 740 mg/kg.
For `OCCS`, the median lethal dose (LD50) is 244 mg/kg.
`CCOC(=O)C(C)Oc1ccc(Oc2nc3ccc(Cl)cc3s2)cc1` (centres undefined): the LD50 is 907 mg/kg.
For the molecule `CCOc1ccccc1N1CCN(CCCc2ccc3c(c2)CCC(=O)N3)CC1`, the LD50 is 500 mg/kg.
In the case of `CSCC[C@H](N)C(=O)O`, the median lethal dose (LD50) is 36000 mg/kg.
Consider `CCCCOc1c(Cl)c(Cl)c(Cl)c(Cl)c1Cl`, for which the median lethal dose (LD50) is 600 mg/kg.
`CCCCC[C@H](O)/C=C/[C@H]1[C@H](O)CC(=O)[C@@H]1CCCCCCC(=O)O`: the median lethal dose (LD50) is 228 mg/kg.
Consider `O=[N+]([O-])c1ccccc1-c1ccccc1`, for which the LD50 is 1230 mg/kg.
For the molecule `CC(C(=O)O)c1cccc(Oc2ccccc2)c1` (centres undefined), the LD50 was 800 mg/kg.
